Test results reported in ChEMBL document CHEMBL1147001, “Synthesis and antibacterial activity of novel oxazolidinones bearing N-hydroxyacetamidine substituent” (2006).
In brackets after ≈: the same amount, converted by molar mass.

Tests used:
Type in all cases: functional
Enterococcus faecalis [1] = experiment: Antibacterial activity against vancomycin-resistant Enterococcus faecalis DRCC 153
Enterococcus faecalis [2] = experiment: Antibacterial activity against vancomycin-resistant Enterococcus faecalis DRCC 154
Moraxella catarrhalis = experiment: Antibacterial activity against beta lactamase negative Moraxella catarrhalis DRCC 300
Haemophilus influenzae = experiment: Antibacterial activity against beta lactamase negative Haemophilus influenzae DRCC 433
Staphylococcus aureus [3] = experiment: Efficacy against po dosed mouse infected with Staphylococcus aureus ATCC 29213
Staphylococcus aureus [4] = experiment: Antibacterial activity against methicillin-resistant Staphylococcus aureus DRCC 446
Enterococcus faecalis [5] = experiment: Antibacterial activity against vancomycin-susceptible Enterococcus faecalis DRCC 034
Staphylococcus aureus [6] = experiment: Antibacterial activity against methicillin-susceptible Staphylococcus aureus DRCC 035
Staphylococcus aureus [7] = experiment: Antibacterial activity against methicillin-resistant Staphylococcus aureus DRCC 019

SMILES | MIC (Enterococcus faecalis [1]) | MIC (Enterococcus faecalis [2]) | MIC (Moraxella catarrhalis) | MIC (Haemophilus influenzae) | ED50 (Staphylococcus aureus [3]) | MIC (Staphylococcus aureus [4]) | MIC (Enterococcus faecalis [5]) | MIC (Staphylococcus aureus [6]) | MIC (Staphylococcus aureus [7])
N/C(CN1CCN(c2c(F)cc(N3C[C@H](CNC(=O)C(F)F)OC3=O)cc2F)CC1)=N\O | 0.5 µg/mL (≈ 1.08 µM) | 1 µg/mL (≈ 2.16 µM) | 2 µg/mL (≈ 4.33 µM) | 4 µg/mL (≈ 8.65 µM) | 18.3 mg/kg/day | 1 µg/mL (≈ 2.16 µM) | 1 µg/mL (≈ 2.16 µM) | 2 µg/mL (≈ 4.33 µM) | 1 µg/mL (≈ 2.16 µM)
COC(=O)NC[C@H]1CN(c2ccc(N3CCN(CC(=N)NO)CC3)c(F)c2)C(=O)O1 | 4 µg/mL (≈ 9.42 µM) | 16 µg/mL (≈ 37.7 µM) | > 16 µg/mL | 32 µg/mL (≈ 75.4 µM) |  | 16 µg/mL (≈ 37.7 µM) | 4 µg/mL (≈ 9.42 µM) | 8 µg/mL (≈ 18.8 µM) | 16 µg/mL (≈ 37.7 µM)
N/C(CN1CCN(c2c(F)cc(N3C[C@H](COc4ccon4)OC3=O)cc2F)CC1)=N\O | 2 µg/mL (≈ 4.42 µM) | 4 µg/mL (≈ 8.84 µM) | 16 µg/mL (≈ 35.4 µM) | > 32 µg/mL |  | 2 µg/mL (≈ 4.42 µM) | 4 µg/mL (≈ 8.84 µM) | 4 µg/mL (≈ 8.84 µM) | 2 µg/mL (≈ 4.42 µM)
COC(=O)NC[C@H]1CN(c2cc(F)c(N3CCN(CC(=N)NO)CC3)c(F)c2)C(=O)O1 | 1 µg/mL (≈ 2.26 µM) | 2 µg/mL (≈ 4.52 µM) | 2 µg/mL (≈ 4.52 µM) | 8 µg/mL (≈ 18.1 µM) | 32.2 mg/kg/day | 1 µg/mL (≈ 2.26 µM) | 1 µg/mL (≈ 2.26 µM) | 2 µg/mL (≈ 4.52 µM) | 1 µg/mL (≈ 2.26 µM)
C/C(S)=N/C[C@H]1CN(c2cc(F)c(N3CCN(CC(=N)NO)CC3)c(F)c2)C(=O)O1 | 0.5 µg/mL (≈ 1.13 µM) | 0.25 µg/mL (≈ 0.565 µM) | 0.5 µg/mL (≈ 1.13 µM) | 4 µg/mL (≈ 9.04 µM) | 22.1 mg/kg/day | 0.25 µg/mL (≈ 0.565 µM) | 0.5 µg/mL (≈ 1.13 µM) | 1 µg/mL (≈ 2.26 µM) | 0.25 µg/mL (≈ 0.565 µM)
N/C(CN1CCN(c2ccc(N3C[C@H](COc4ccon4)OC3=O)cc2F)CC1)=N\O | 8 µg/mL (≈ 18.4 µM) | 16 µg/mL (≈ 36.8 µM) | 8 µg/mL (≈ 18.4 µM) | 256 µg/mL (≈ 589 µM) |  | 4 µg/mL (≈ 9.21 µM) | 16 µg/mL (≈ 36.8 µM) | 16 µg/mL (≈ 36.8 µM) | 4 µg/mL (≈ 9.21 µM)
CC(=O)NC[C@H]1CN(c2ccc(N3CCOCC3)c(F)c2)C(=O)O1 [LINEZOLID] |  |  | 8 µg/mL (≈ 23.7 µM) | 8 µg/mL (≈ 23.7 µM) | 5.3 mg/kg/day |  |  |  | 1 µg/mL (≈ 2.96 µM)
N/C(CN1CCN(c2ccc(N3C[C@H](CNC(=O)C(F)F)OC3=O)cc2F)CC1)=N\O | 2 µg/mL (≈ 4.5 µM) | 4 µg/mL (≈ 9 µM) | 8 µg/mL (≈ 18 µM) | 4 µg/mL (≈ 9 µM) | 12.1 mg/kg/day | 4 µg/mL (≈ 9 µM) | 4 µg/mL (≈ 9 µM) | 4 µg/mL (≈ 9 µM) | 4 µg/mL (≈ 9 µM)
C/C(S)=N/C[C@H]1CN(c2ccc(N3CCN(CC(=N)NO)CC3)c(F)c2)C(=O)O1 | 1 µg/mL (≈ 2.36 µM) | 1 µg/mL (≈ 2.36 µM) |  | 4 µg/mL (≈ 9.42 µM) |  | 1 µg/mL (≈ 2.36 µM) | 1 µg/mL (≈ 2.36 µM) | 2 µg/mL (≈ 4.71 µM) | 1 µg/mL (≈ 2.36 µM)
CO/C(S)=N/C[C@H]1CN(c2ccc(N3CCN(CC(=N)NO)CC3)c(F)c2)C(=O)O1 | 0.5 µg/mL (≈ 1.14 µM) | 0.5 µg/mL (≈ 1.14 µM) | 8 µg/mL (≈ 18.2 µM) | 8 µg/mL (≈ 18.2 µM) | 21.2 mg/kg/day | 0.5 µg/mL (≈ 1.14 µM) | 0.5 µg/mL (≈ 1.14 µM) | 1 µg/mL (≈ 2.27 µM) | 0.5 µg/mL (≈ 1.14 µM)
CC(=O)NC[C@H]1CN(c2ccc(N3CCN(CC(=N)NO)CC3)c(F)c2)C(=O)O1 | 2 µg/mL (≈ 4.9 µM) | 8 µg/mL (≈ 19.6 µM) | 8 µg/mL (≈ 19.6 µM) | 8 µg/mL (≈ 19.6 µM) |  | 4 µg/mL (≈ 9.79 µM) | 8 µg/mL (≈ 19.6 µM) | 16 µg/mL (≈ 39.2 µM) | 4 µg/mL (≈ 9.79 µM)
CO/C(S)=N/C[C@H]1CN(c2cc(F)c(N3CCN(CC(=N)NO)CC3)c(F)c2)C(=O)O1 | 0.25 µg/mL (≈ 0.545 µM) | 0.25 µg/mL (≈ 0.545 µM) | 0.5 µg/mL (≈ 1.09 µM) | 4 µg/mL (≈ 8.72 µM) | 32.2 mg/kg/day | 0.25 µg/mL (≈ 0.545 µM) | 0.25 µg/mL (≈ 0.545 µM) | 0.5 µg/mL (≈ 1.09 µM) | 0.25 µg/mL (≈ 0.545 µM)
CC(=O)NC[C@H]1CN(c2cc(F)c(N3CCN(CC(=N)NO)CC3)c(F)c2)C(=O)O1 | 1 µg/mL (≈ 2.35 µM) | 1 µg/mL (≈ 2.35 µM) | 4 µg/mL (≈ 9.38 µM) | 4 µg/mL (≈ 9.38 µM) |  | 1 µg/mL (≈ 2.35 µM) | 1 µg/mL (≈ 2.35 µM) | 2 µg/mL (≈ 4.69 µM) | 1 µg/mL (≈ 2.35 µM)
